{
  "source": "patent US11903387B2",
  "about": "(priority 2016, dated 2024)",
  "key": {"[1]": {"system": "Pseudoperonospora cubensis", "experiment": "Test 2: control effect against cucumber downy mildew", "assay_type": "in vivo"}, "Phytophthora infestans": {"system": "Phytophthora infestans", "experiment": "whole plant or invertebrate", "assay_type": "in vivo"}, "[2]": {"settings": "component (b) alone 0.4 ppm, average of three repeats"}, "[3]": {"settings": "component (b) alone 2 ppm, average of three repeats"}, "[4]": {"settings": "component (b) alone 10 ppm, average of three repeats"}},
  "note": "“And” between values parts separate entries of the source, which are not always exact repeats. Equal values may be shown once. Read-outs that look alike come from different tables or passages of the source.",
  "data": [
    {"molecule": "CCCOC(=O)NCCCN(C)C", "note": "[Propamocarb]", "values": [
      {"measurement": "pest or weed control at 200 ppm", "setting": "[1]; Pseudoperonospora cubensis, component (b) alone 200 ppm, read-out: Test 2 Measured", "result": 45, "unit": "%"},
      {"measurement": "pest or weed control at 1000 ppm", "setting": "[1]; Pseudoperonospora cubensis, component (b) alone 1000 ppm, read-out: Test 2 Measured", "result": 97.5, "unit": "%"},
      {"measurement": "pest or weed control at 5000 ppm", "setting": "[1]; Pseudoperonospora cubensis, component (b) alone 5000 ppm, read-out: Test 2 Measured", "result": 81.5, "unit": "%"},
      {"measurement": "pest or weed control at 200 ppm", "setting": "Phytophthora infestans; Phytophthora infestans, in Solanum lycopersicum, read-out: Test 1 Measured, component (b) alone 200 ppm", "result": 5, "unit": "%"},
      {"measurement": "pest or weed control at 1000 ppm", "setting": "Phytophthora infestans; Phytophthora infestans, in Solanum lycopersicum, read-out: Test 1 Measured, component (b) alone 1000 ppm", "result": 21.7, "unit": "%"},
      {"measurement": "pest or weed control at 5000 ppm", "setting": "Phytophthora infestans; Phytophthora infestans, in Solanum lycopersicum, read-out: Test 1 Measured, component (b) alone 5000 ppm", "result": 48.3, "unit": "%"}
    ]},
    {"molecule": "CCC(C)(NC(=O)c1cc(Cl)c(C)c(Cl)c1)C(=O)CCl", "note": "(centres unmarked) [Zoxamide]", "values": [
      {"measurement": "Test 2 Measured preventive value", "setting": "[1]; component (b) alone, 2 ppm", "result": 94},
      {"measurement": "Test 2 Measured preventive value", "setting": "[1]; component (b) alone, 10 ppm", "result": 97.3},
      {"measurement": "Test 2 Measured preventive value", "setting": "[1]; component (b) alone, 50 ppm", "result": 98.8},
      {"measurement": "pest or weed control at 2 ppm", "setting": "Phytophthora infestans; Phytophthora infestans, in Solanum lycopersicum, read-out: Test 1 Measured preventive value, component (b) alone, 2 ppm", "result": 83.3, "unit": "%"},
      {"measurement": "pest or weed control at 10 ppm", "setting": "Phytophthora infestans; Phytophthora infestans, in Solanum lycopersicum, read-out: Test 1 Measured preventive value, component (b) alone, 10 ppm", "result": 95, "unit": "%"},
      {"measurement": "pest or weed control at 50 ppm", "setting": "Phytophthora infestans; Phytophthora infestans, in Solanum lycopersicum, read-out: Test 1 Measured preventive value, component (b) alone, 50 ppm", "result": 99, "unit": "%"}
    ]},
    {"molecule": "Cc1cc(C(F)(F)F)nn1CC(=O)N1CCC(c2nc(C3OCc4c(F)ccc(OS(C)(=O)=O)c4CO3)cs2)CC1", "note": "(centres unmarked) [Compound 1-8, 4-[4-(6-fluoro-9-methylsulfonyloxy-1,5-dihydro-3H-2,4-benzodioxepin-3-yl)-2-thiazolyl]-1-[2-[5-methyl-3-(trifluoromethyl)-1H-pyrazol-1-yl]acetyl]piperidine]", "values": [
      {"measurement": "Test 2 Measured preventive value", "setting": "[1]; Compound alone, 0.012 ppm", "result": "10 and 12.5 and 15"},
      {"measurement": "Test 2 Measured preventive value", "setting": "[1]; Compound alone, 0.06 ppm", "result": "95.5 and 96.5 and 97.5"},
      {"measurement": "Test 2 Measured preventive value", "setting": "[1]; Compound alone, 0.3 ppm", "result": 100},
      {"measurement": "pest or weed control at 0.06 ppm", "setting": "[1]; Pseudoperonospora cubensis, Compound alone 0.06 ppm, read-out: Test 2 Measured", "result": 98.8, "unit": "%"},
      {"measurement": "pest or weed control at 0.3 ppm", "setting": "[1]; Pseudoperonospora cubensis, Compound alone 0.3 ppm, read-out: Test 2 Measured", "result": 100, "unit": "%"},
      {"measurement": "pest or weed control at 0.06 ppm", "setting": "[1]; Pseudoperonospora cubensis, applied alone, 0.06 ppm, read-out: Test 2 preventive value, Measured", "result": 98, "unit": "%"},
      {"measurement": "pest or weed control at 0.3 ppm", "setting": "[1]; Pseudoperonospora cubensis, applied alone, 0.3 ppm, read-out: Test 2 preventive value, Measured", "result": 100, "unit": "%"},
      {"measurement": "Test 2 preventive value, Measured", "setting": "[1]; applied alone, 0.06 ppm", "result": 98},
      {"measurement": "Test 1 Measured preventive value", "setting": "Phytophthora infestans; Compound alone, 0.3 ppm", "result": 100},
      {"measurement": "pest or weed control at 0.012 ppm", "setting": "Phytophthora infestans; Phytophthora infestans, in Solanum lycopersicum, read-out: Test 1 Measured preventive value, Compound alone, 0.012 ppm", "result": 30, "unit": "%"},
      {"measurement": "pest or weed control at 0.06 ppm", "setting": "Phytophthora infestans; Phytophthora infestans, in Solanum lycopersicum, read-out: Test 1 Measured preventive value, Compound alone, 0.06 ppm", "result": 98, "unit": "%"},
      {"measurement": "pest or weed control at 0.3 ppm", "setting": "Phytophthora infestans; Phytophthora infestans, in Solanum lycopersicum, read-out: Test 1 Measured preventive value, Compound alone, 0.3 ppm", "result": 100, "unit": "%"},
      {"measurement": "pest or weed control at 0.06 ppm", "setting": "Phytophthora infestans; Phytophthora infestans, in Solanum lycopersicum, read-out: Test 1 Measured, Compound alone 0.06 ppm", "result": 96.2, "unit": "%"},
      {"measurement": "pest or weed control at 0.3 ppm", "setting": "Phytophthora infestans; Phytophthora infestans, in Solanum lycopersicum, read-out: Test 1 Measured, Compound alone 0.3 ppm", "result": 100, "unit": "%"},
      {"measurement": "pest or weed control at 0.012 ppm", "setting": "Phytophthora infestans; Phytophthora infestans, in Solanum lycopersicum, read-out: Test 1 preventive value, Measured, applied alone, 0.012 ppm", "result": 43.3, "unit": "%"},
      {"measurement": "pest or weed control at 0.06 ppm", "setting": "Phytophthora infestans; Phytophthora infestans, in Solanum lycopersicum, read-out: Test 1 preventive value, Measured, applied alone, 0.06 ppm", "result": 97.7, "unit": "%"},
      {"measurement": "pest or weed control at 0.3 ppm", "setting": "Phytophthora infestans; Phytophthora infestans, in Solanum lycopersicum, read-out: Test 1 preventive value, Measured, applied alone, 0.3 ppm", "result": 100, "unit": "%"}
    ]},
    {"molecule": "COCC(=O)N(c1c(C)cccc1C)[C@H](C)C(=O)OC", "note": "[Metalaxyl-M]", "values": [
      {"measurement": "Test 2 Measured preventive value", "setting": "[1]; [2]", "result": 0},
      {"measurement": "Test 2 Measured preventive value", "setting": "[1]; [3]", "result": 0},
      {"measurement": "Test 2 Measured preventive value", "setting": "[1]; [4]", "result": 0},
      {"measurement": "Test 2 Measured", "setting": "[1]; component (b) alone, 0.4 ppm", "result": 0},
      {"measurement": "Test 2 Measured preventive value", "setting": "[1]; component (b) alone, 0.4 ppm", "result": 0},
      {"measurement": "Test 2 Measured", "setting": "[1]; component (b) alone, 2 ppm", "result": 0},
      {"measurement": "Test 2 Measured preventive value", "setting": "[1]; component (b) alone, 2 ppm", "result": 0},
      {"measurement": "Test 2 Measured", "setting": "[1]; component (b) alone, 10 ppm", "result": 0},
      {"measurement": "Test 2 Measured preventive value", "setting": "[1]; component (b) alone, 10 ppm", "result": 0},
      {"measurement": "Test 1 Measured preventive value", "setting": "Phytophthora infestans; [2]", "result": 38.3},
      {"measurement": "Test 1 Measured preventive value", "setting": "Phytophthora infestans; [3]", "result": 89.2},
      {"measurement": "Test 1 Measured preventive value", "setting": "Phytophthora infestans; [4]", "result": 100.0},
      {"measurement": "Test 1 Measured", "setting": "Phytophthora infestans; component (b) alone, 0.4 ppm", "result": 54.4},
      {"measurement": "Test 1 Measured preventive value", "setting": "Phytophthora infestans; component (b) alone, 0.4 ppm", "result": 38.3},
      {"measurement": "Test 1 Measured", "setting": "Phytophthora infestans; component (b) alone, 2 ppm", "result": 86.0},
      {"measurement": "Test 1 Measured preventive value", "setting": "Phytophthora infestans; component (b) alone, 2 ppm", "result": 89.3},
      {"measurement": "Test 1 Measured", "setting": "Phytophthora infestans; component (b) alone, 10 ppm", "result": 99.0},
      {"measurement": "Test 1 Measured preventive value", "setting": "Phytophthora infestans; component (b) alone, 10 ppm", "result": 98.5}
    ]},
    {"molecule": "Basic copper sulfate", "values": [
      {"measurement": "Test 2 Measured", "setting": "[1]; component (b) alone, 20 ppm", "result": 32},
      {"measurement": "Test 2 Measured preventive value", "setting": "[1]; component (b) alone, 20 ppm", "result": 18.8},
      {"measurement": "Test 2 Measured", "setting": "[1]; component (b) alone, 100 ppm", "result": 80.9},
      {"measurement": "Test 2 Measured preventive value", "setting": "[1]; component (b) alone, 100 ppm", "result": 82},
      {"measurement": "Test 2 Measured", "setting": "[1]; component (b) alone, 500 ppm", "result": 95},
      {"measurement": "Test 2 Measured preventive value", "setting": "[1]; component (b) alone, 500 ppm", "result": 97},
      {"measurement": "Test 1 Measured", "setting": "Phytophthora infestans; component (b) alone, 20 ppm", "result": 55},
      {"measurement": "Test 1 Measured preventive value", "setting": "Phytophthora infestans; component (b) alone, 20 ppm", "result": 71.7},
      {"measurement": "Test 1 Measured", "setting": "Phytophthora infestans; component (b) alone, 100 ppm", "result": 90.7},
      {"measurement": "Test 1 Measured preventive value", "setting": "Phytophthora infestans; component (b) alone, 100 ppm", "result": 92.5},
      {"measurement": "Test 1 Measured", "setting": "Phytophthora infestans; component (b) alone, 500 ppm", "result": 100},
      {"measurement": "Test 1 Measured preventive value", "setting": "Phytophthora infestans; component (b) alone, 500 ppm", "result": 100}
    ]},
    {"molecule": "COC(=O)NCc1cc(/C(C)=N/OCc2cccc(C)n2)ccc1Cl", "note": "[Pyribencarb]", "values": [
      {"measurement": "pest or weed control at 10 ppm", "setting": "[1]; Pseudoperonospora cubensis, applied alone, 10 ppm, read-out: Test 2 preventive value, Measured", "result": 0, "unit": "%"},
      {"measurement": "pest or weed control at 50 ppm", "setting": "[1]; Pseudoperonospora cubensis, applied alone, 50 ppm, read-out: Test 2 preventive value, Measured", "result": 0, "unit": "%"},
      {"measurement": "pest or weed control at 250 ppm", "setting": "[1]; Pseudoperonospora cubensis, applied alone, 250 ppm, read-out: Test 2 preventive value, Measured", "result": 10, "unit": "%"},
      {"measurement": "pest or weed control at 10 ppm", "setting": "Phytophthora infestans; Phytophthora infestans, in Solanum lycopersicum, read-out: Test 1 preventive value, Measured, applied alone, 10 ppm", "result": 8.3, "unit": "%"},
      {"measurement": "pest or weed control at 50 ppm", "setting": "Phytophthora infestans; Phytophthora infestans, in Solanum lycopersicum, read-out: Test 1 preventive value, Measured, applied alone, 50 ppm", "result": 11.7, "unit": "%"},
      {"measurement": "pest or weed control at 250 ppm", "setting": "Phytophthora infestans; Phytophthora infestans, in Solanum lycopersicum, read-out: Test 1 preventive value, Measured, applied alone, 250 ppm", "result": 23.3, "unit": "%"}
    ]},
    {"molecule": "Cc1cccc2sc3nncn3c12", "note": "[Tricyclazole]", "values": [
      {"measurement": "pest or weed control at 20 ppm", "setting": "[1]; Pseudoperonospora cubensis, component (b) alone 20 ppm, read-out: Test 2 Measured", "result": 0, "unit": "%"},
      {"measurement": "pest or weed control at 100 ppm", "setting": "[1]; Pseudoperonospora cubensis, component (b) alone 100 ppm, read-out: Test 2 Measured", "result": 0, "unit": "%"},
      {"measurement": "pest or weed control at 500 ppm", "setting": "[1]; Pseudoperonospora cubensis, component (b) alone 500 ppm, read-out: Test 2 Measured", "result": 22.5, "unit": "%"},
      {"measurement": "pest or weed control at 20 ppm", "setting": "Phytophthora infestans; Phytophthora infestans, in Solanum lycopersicum, read-out: Test 1 Measured, component (b) alone 20 ppm", "result": 0, "unit": "%"},
      {"measurement": "pest or weed control at 100 ppm", "setting": "Phytophthora infestans; Phytophthora infestans, in Solanum lycopersicum, read-out: Test 1 Measured, component (b) alone 100 ppm", "result": 0, "unit": "%"},
      {"measurement": "pest or weed control at 500 ppm", "setting": "Phytophthora infestans; Phytophthora infestans, in Solanum lycopersicum, read-out: Test 1 Measured, component (b) alone 500 ppm", "result": 70, "unit": "%"}
    ]}
  ]
}
